These results are taken from patent US4672055A, “Erythromycin salt with mucosecretolytic and fluidizing activity and pharmaceutical compositions thereof” (priority 1984, dated 1987).

≈ marks a conversion by molar mass, not a printed value. Where two headings read alike, the source gives them in different places. Bounds are passed on as bounds.

Series [1] relates to Pseud. aerug. clin (strain 12). Description: Antimicrobic in vitro activity, MIC. The settings on record: Mueller-Hinton medium, 24 hours at 37° C. The format is cell-based. The protocol: (§1) Microbiologic "in vitro" tests. Tests carried out in order to evaluate the values of the Minimum Inhibiting Concentrations (MIC) are performed by the method of the substrate treated with scalar drugs concentrations, by the "multi-points inoculator" technique.
(§2) As test strains, bacteria from clinical isolation and from international culture collections are tested.
(§3) In the tables, the MIC values (mcg/ml), as obtained employing the Mueller-Hinton medium , are reported.
(§4) The MIC values in the tables refer to readings after 24 and 48 hours at 37° C.
(§5) clin = clinic isolation

The subject of another series is Serr. marcescens clin. Description: Antimicrobic in vitro activity, MIC. Format: cell-based. Here is the method: as §1, §2, §3, §4, §5
The subject of series [2] is Staph. epiderm clin (strain 4). Put plainly: Antimicrobic in vitro activity, MIC. Format: cell-based. The settings on record: Mueller-Hinton medium. Here is the method: as §1, §2, §3, §4, §5
The test system of series [3] is Pseud. aerug. clin (strain 10). Put plainly: Antimicrobic in vitro activity, MIC. Format: cell-based. The settings on record: Mueller-Hinton medium, 24 hours at 37° C. The protocol:
as §1, §2, §3, §4, §5

The next series relates to Cand. albicans clin. Description: Antimicrobic in vitro activity, MIC. The format is cell-based. The settings on record: Mueller-Hinton medium. The protocol:
as §1, §2, §3, §4, §5

The subject of the next series is Strept. faecalis clin. Put plainly: Antimicrobic in vitro activity, MIC. Format: cell-based. Conditions: Mueller-Hinton medium. The protocol:
as §1, §2, §3, §4, §5

The test system of series [4] is Pseud. aerug. clin (strain 11). Put plainly: Antimicrobic in vitro activity, MIC. Format: cell-based. The settings on record: Mueller-Hinton medium. Here is the method: as §1, §2, §3, §4, §5
The subject of the next series is Esch. coli 418. Put plainly: Antimicrobic in vitro activity, MIC. Format: cell-based. Conditions: Mueller-Hinton medium. The protocol: as §1, §2, §3, §4
The subject of the next series is Proteus vulg. X 19. Description: Antimicrobic in vitro activity, MIC. The format is cell-based. Here is the method:
as §1, §2, §3, §4

The subject of series [5] is mucoproduction (bronchial secretion). Description: Bronchosecretagogue activity (mucoproduction) in the rabbit. Format: in vivo, rabbit (male brown). Conditions: oral, percent increase of mucoproduction, period II vs I, based on d,l-trans-sobrerol taken equal to 100. The protocol:
Method of mucoproduction in the rabbit according to Scuri R. et al, Boll Chim. Farm. 119, 181-7, 1980.
Male brown rabbits weighing 2.8-3.5 kg. are employed. To said animals, by surgical operation under anaesthesia, a T shaped tracheal cannula is applied, as described in the bibliographic reference mentioned above.
To the cannula, a container (a polyproylene 2 ml test tube) is applied for periodical collection of the bronchial secretion. The study of mucoproduction started at the fourth day after the operation, is divided into two 4 hour periods for collecting and measuring the mucus, and exactly from 8:30 to 12:30 (I) and from 12:30 to 16:30 (II).
The activity of each drug is tested by administering the same by oesophageal way (os) at the begining of the II period and by evaluating the percent increase of mucoproduction (weight of the mucus as collected) over the II period as compared to the I period.
The activity of the compound of formula (I), of the present invention, is based on the d,1-trans-sobrerol one, taken equal to 100.

Series [6] is described as follows: Pharmacokinetics: plasma levels of erythromycin after oral administration. Format: in vivo, Wistar rats. The protocol: (§6) Two groups of Wistar rats (180-270g.) are utilized. To the first group the compound of formula (I) of this invention, orally (transoesophageal intubation) at the dose of 800mg/kg, is administered, whilst to the second, again by the oral way, 585 mg/kg of erythromycin are administered.
(§7) Before treatment the rats were fasting for about 15 hours and were allowed to drink ad libitum. In both cases at 0.5 h; 1h;1.5 h; 2h; 3h; 4h; 6h from administration 5 rats/time are sacrificed. The blood as collected in test tubes containing sodium heparin is centrifuged and the plasma so obtained is utilized for the quantitative analysis of erythromycin by means of the micorbiologic standard method, using Staphylococcus aureus as a test organisum (P.G. Welling and W.A. Craig, J. Pharm. Sci. 67, 1057 (1978)).

The subject of a further series is bronchial mucus. Put plainly: Fluidizing "in vivo" activity of bronchial mucus of bronchitic rabbits (viscosity). Details: species or system rabbit (male). Conditions: oral, based on d,l-sobrerol taken equal to 100. Here is the method: A method for studying viscosity of bronchial mucus of a bronchitic rabbit (R. Scuri et al-Il Farmaco, Ed.Pr. 36, 36-48, 1981).
Male rabbits weighing […], made bronchitic by sulphuric acid aerosol treatment according to the method of Cantarelli (G. Cantarelli et al--Il Farmaco, Ed. Pr. 34, 393-416, 1979), are treated with the test drugs and the bronchial mucus is collected by means of a tracheal cannula according to the procedure of R. Scuri (R. Scuri et al -Boll. Chim. Farm. 119, 181-7, 1980). Viscosity of the mucus as withdrawn is studied by using a Contraves RM16 micro viscosimeter and it is recorded by a Rheomat 15T -FC apparatus.
The activity of the compound of formula (I) of this invention is based on the one of d,1-sobrerol, taken equal to 100.

Series [7] is described as follows: Pharmacokinetics: erythromycin in lungs after oral administration. The format is in vivo. The settings on record: Wistar rats, single oral 800 mg/kg vs erythromycin 585 mg/kg; lung homogenate. Here is the method:
as §6, §7
From the same rats, in similar manner, the lungs are withdrawn and, after homogenizing the tissue, the erythromycin rates are evaluated.

The test system of another series is Staph. aureus 14154. Description: Antimicrobic in vitro activity, MIC. The format is cell-based. Conditions: Mueller-Hinton medium. The protocol: as §1, §2, §3, §4
(§8) The strains with 4 figures are of ATCC.

The subject of the next series is Strept. faecalis 8043. Put plainly: Antimicrobic in vitro activity, MIC. Format: cell-based. Conditions: Mueller-Hinton medium. Here is the method: as §1, §2, §3, §4, §8
The next series has as its system Staph. aureus 6538. Description: Antimicrobic in vitro activity, MIC. The format is cell-based. The settings on record: Mueller-Hinton medium. Here is the method: as §1, §2, §3, §4, §8
The test system of another series is mouse. Description: Acute toxicity (LD50) in the mouse after single oral administration. Format: in vivo, mouse (Swiss albine, female). Conditions: mortality at 14th day. The protocol: (§9) Method for studying LD50 in the mouse after a single oral administration.
(§10) Groups of 10 Swiss albine, female, adult (g.20-22) mice, fasting from the evening preceding the test, are treated by oral way with various doses (4 to 5) of the test drugs, dissolved/suspended in 1% hydroxyethyl cellulose (volume administered : 20ml/kg). Thereafter, the animals are fed again. (Morini MIL fodder for mice)
(§11) The 50% lethal dose (LD50) is calculated by the method of Litchfield, J.T. and Wilcoxon, F. (J. Pharmacol. 96,99-113,1949) by the mortality data as obtained at 14th day after the drug treatment.

Assay in series [8]: as above
The format is in vivo, mouse (Swiss albine, female). Conditions: in vivo, mortality at 14th day, read-out: DL50 (LD50). Here is the method: as §9, §10, §11

[9] abbreviates: Mueller-Hinton medium, 24 hours at 37° C.
[10] abbreviates: Mueller-Hinton medium, 48 hours at 37° C.
The mark [11] stands for this setting: 24 hours at 37° C., read-out: MIC.
Setting [12] is: 48 hours at 37° C., read-out: MIC.

Consider “Erythromycinsalt of 5-(3-carboxy-1-oxopropoxy)-α, α 4-trimethyl-3-cyclohexene-1-methanol [CO/1311]”, for which the MIC (as a rule, the lowest concentration found to suppress growth) was above 100 µg/mL in series [1]; 50 µg/mL against Serr. marcescens clin (setting [9]); 50 µg/mL against Serr. marcescens clin (setting [10]); 10 µg/mL in series [2] (24 hours at 37° C.); 10 µg/mL in [2] (48 hours at 37° C.); above 100 µg/mL in series [3]. Moreover, the MIC against Cand. albicans clin (24 hours at 37° C.) is 100 µg/mL; against Cand. albicans clin (48 hours at 37° C.), 100 µg/mL; in the series with Strept. faecalis clin (24 hours at 37° C.), 0.4 µg/mL; against Strept. faecalis clin (48 hours at 37° C.), 0.4 µg/mL; in series [4] (24 hours at 37° C.) it was 100 µg/mL; in [4] (48 hours at 37° C.), 100 µg/mL. The MIC in the series on Esch. coli 418 (24 hours at 37° C.) was 25 µg/mL; against Esch. coli 418 (48 hours at 37° C.) it was 25 µg/mL; against Proteus vulg. X 19 (setting [9]), 2.5 µg/mL; against Proteus vulg. X 19 (setting [10]) it was 2.5 µg/mL; against Staph. aureus 14154 (24 hours at 37° C.), 10 µg/mL; with Staph. aureus 14154 (48 hours at 37° C.), 10 µg/mL. Further, the MIC was 0.3 µg/mL against Strept. faecalis 8043 (24 hours at 37° C.), 0.3 µg/mL against Strept. faecalis 8043 (48 hours at 37° C.), 10 µg/mL against Staph. aureus 6538 (24 hours at 37° C.) and 10 µg/mL with Staph. aureus 6538 (48 hours at 37° C.). The “Bronchosecretagogue activity (relative to d,l-trans-sobrerol = 100)” value in series [5] worked out at 140. Also, in series [6] (Wistar rats, single oral 800 mg/kg vs erythromycin 585 mg/kg, 0.5-6 h, microbiologic assay), the “plasmatic levels of erythromycin vs equidose erythromycin administration” value is “significantly higher”. Moreover, in [6] (rat, in vivo), the “bioavailability of erythromycin vs the antibiotic administered as such” value is recorded as “improved bioavailability”. Further, the “Fluidizing in vivo activity (relative to d,l-sobrerol = 100)” value in the series with bronchial mucus was determined as 132. Besides, the “erythromycin rates in lungs vs erythromycin administration” value in series [7] was “significantly higher”. Moreover, the “DL50 (LD50)” value in the series on mouse is on record as 4322.3 mg/kg.
For the compound `CC[C@H]1OC(=O)[C@H](C)[C@@H](O[C@H]2C[C@@](C)(OC)[C@@H](O)[C@H](C)O2)[C@H](C)[C@@H](O[C@@H]2O[C@H](C)C[C@H](N(C)C)[C@H]2O)[C@](C)(O)C[C@@H](C)C(=O)[C@H](C)[C@@H](O)[C@]1(C)O` [erythromycin], the minimal inhibitory concentration (MIC) in [1] (read-out: MIC) is above 100 µg/mL; against Serr. marcescens clin (Serratia marcescens, 24 h), 45 µg/mL (≈ 61.3 µM); against Serr. marcescens clin (Serratia marcescens, 48 h) it was 50 µg/mL (≈ 68.1 µM); in series [2] (setting [11]), 10 µg/mL (≈ 13.6 µM); in [2] (setting [12]), 10 µg/mL (≈ 13.6 µM); in series [3] (read-out: MIC) it was above 100 µg/mL. For the same compound, the MIC in the series with Cand. albicans clin (Candida albicans, 24 hours at 37° C., read-out: MIC) was 100 µg/mL (≈ 136 µM); in the series with Cand. albicans clin (Candida albicans, 48 hours at 37° C., read-out: MIC) it was 100 µg/mL (≈ 136 µM); with Strept. faecalis clin (Enterococcus faecalis, 24 hours at 37° C., read-out: MIC), 0.3 µg/mL (≈ 0.409 µM); with Strept. faecalis clin (Enterococcus faecalis, 48 hours at 37° C., read-out: MIC), 0.3 µg/mL (≈ 0.409 µM); in series [4] (setting [11]) it was 100 µg/mL (≈ 136 µM); in series [4] (setting [12]), 100 µg/mL (≈ 136 µM). Besides, the MIC in the series with Esch. coli 418 (Escherichia coli, 418, 24 hours at 37° C., read-out: MIC) was 25 µg/mL (≈ 34.1 µM); in the series with Esch. coli 418 (Escherichia coli, 418, 48 hours at 37° C., read-out: MIC), 25 µg/mL (≈ 34.1 µM); in the series with Proteus vulg. X 19 (24 h) it was 2.5 µg/mL (≈ 3.41 µM); against Proteus vulg. X 19 (48 h), 2.5 µg/mL (≈ 3.41 µM); in the series with Staph. aureus 14154 (Staphylococcus aureus, 14154, 24 hours at 37° C., read-out: MIC), 10 µg/mL (≈ 13.6 µM); in the series with Staph. aureus 14154 (Staphylococcus aureus, 14154, 48 hours at 37° C., read-out: MIC), 10 µg/mL (≈ 13.6 µM). Further, the MIC in the series on Strept. faecalis 8043 (Enterococcus faecalis, 8043, 24 hours at 37° C., read-out: MIC) is 0.3 µg/mL (≈ 0.409 µM); in the series on Strept. faecalis 8043 (Enterococcus faecalis, 8043, 48 hours at 37° C., read-out: MIC), 0.3 µg/mL (≈ 0.409 µM); with Staph. aureus 6538 (Staphylococcus aureus, 6538, 24 hours at 37° C., read-out: MIC), 10 µg/mL (≈ 13.6 µM); in the series with Staph. aureus 6538 (Staphylococcus aureus, 6538, 48 hours at 37° C., read-out: MIC), 10 µg/mL (≈ 13.6 µM). In addition, the “Bronchosecretagogue activity (relative to d,l-trans-sobrerol = 100)” value in series [5] stood at 0. Besides, the “Fluidizing in vivo activity (relative to d,l-sobrerol = 100)” value with bronchial mucus was 0. The LD50 (usually the dose expected to kill half of the subjects tested) at 336 h in series [8] is above 5000 mg/kg.
Consider `CC1=CC[C@@H](C(C)(C)O)C[C@@H]1O` (relative stereo) [d,l-trans-sobrerol], for which the “Bronchosecretagogue activity (relative to d,l-trans-sobrerol = 100)” value in [5] stood at 100. For the same compound, in the series with bronchial mucus, the “Fluidizing in vivo activity (relative to d,l-sobrerol = 100)” value is on record as 100. Moreover, in series [8], the LD50 at 336 h stood at 2340 mg/kg.
